{"source": "patent US20030064912A1", "about": "“Pharmaceutical compositions and methods of inhibiting angiogenesis using NAALADase inhibitors” (priority 1998, published 2003)", "key": {"NAALADase": {"molecular_target": "NAALADase (Homo sapiens, UniProt Q04609)", "sequence (Q04609 whole entry)": "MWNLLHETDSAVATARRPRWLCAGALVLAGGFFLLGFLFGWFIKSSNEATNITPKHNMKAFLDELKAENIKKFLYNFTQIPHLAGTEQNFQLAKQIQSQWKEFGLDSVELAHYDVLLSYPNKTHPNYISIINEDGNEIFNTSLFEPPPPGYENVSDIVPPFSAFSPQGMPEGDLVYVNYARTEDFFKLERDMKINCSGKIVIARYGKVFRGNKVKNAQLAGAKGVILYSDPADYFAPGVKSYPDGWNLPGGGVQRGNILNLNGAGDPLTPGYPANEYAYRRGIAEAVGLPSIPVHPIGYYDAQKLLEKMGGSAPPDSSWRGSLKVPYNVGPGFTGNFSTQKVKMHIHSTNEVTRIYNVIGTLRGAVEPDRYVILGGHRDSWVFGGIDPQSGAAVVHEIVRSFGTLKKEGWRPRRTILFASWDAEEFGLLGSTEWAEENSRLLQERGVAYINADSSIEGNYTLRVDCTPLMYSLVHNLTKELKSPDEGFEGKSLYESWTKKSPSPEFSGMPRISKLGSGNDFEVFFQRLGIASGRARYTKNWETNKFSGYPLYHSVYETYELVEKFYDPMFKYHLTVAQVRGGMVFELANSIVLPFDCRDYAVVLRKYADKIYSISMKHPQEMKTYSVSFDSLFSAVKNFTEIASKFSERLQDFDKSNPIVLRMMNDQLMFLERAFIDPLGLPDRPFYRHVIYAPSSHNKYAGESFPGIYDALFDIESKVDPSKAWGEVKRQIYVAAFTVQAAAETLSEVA", "experiment": "In vitro inhibition of NAALADase activity", "assay_type": "biochemical", "details": "for NAALADase inhibiting activity (in words): qualitative, compared with 2-(phosphonomethyl)pentanedioic acid; for Ki: in vitro inhibition of NAALADase activity", "description": "Various compounds of the present invention were tested for in vitro inhibition of NAALADase activity."}, "[1]": {"system": "angiogenesis in the Matrigel™/bFGF gels", "experiment": "In vivo assay of a continuous dosage of NAALADase inhibitors on angiogenesis (miniosmotic pumps, Matrigel/bFGF)", "design": "species or system C57B1 female mice", "details": "13 days post injection", "description": "Minipumps filled with vehicle (50 mM Hepes) were also implanted at this time. Twenty-four hours later, mice were each injected subcutaneously with 0.5 mL Matrigel™ and the 150 ng/mL of the angiogenic factor, basic FGF (bFGF). Thirteen days post Matrigel™/bFGF injection, the gels were recovered, fixed in formalin and sections were stained with Trichrome-Masson stain."}, "[2]": {"system": "angiogenesis in Matrigel™ plugs", "experiment": "In vivo assay of daily dosages of NAALADase inhibitors on angiogenesis (Matrigel plug with bFGF)", "design": "species or system C57B1 female mice", "details": "7 days post injection", "description": "C57B1 female mice age 8 to 10 weeks (5/group) were injected subcutaneously with 0.5 mL of Matrigel™, 150 ng/mL of the angiogenic factor basic FGF (bFGF) and with 0, 0.47 μM or 4.7 μM […] (PMPA). The injected Matrigel™ rapidly formed a gel. […] Seven days post Matrigel™ injection, Matrigel™ plugs were excised and histology was performed.\nThe concentrations of the daily dosages as well as the coinciding initial Matrigel™ plug compositions are provided below in TABLE IV."}, "mice": {"system": "mice", "experiment": "In vivo toxicity of NAALADase inhibitors in mice", "details": "for Survival Rate After 5 days (%): observed 5 consecutive days", "text": "The mice were subsequently observed two times per day for 5 consecutive days. The survival rate at each dose level is provided below in TABLE II."}}, "data": [{"smiles": "O=C(O)CC(CP(=O)(O)O)C(=O)O", "note": "(stereo not drawn) [2-(phosphonomethyl)succinic acid]", "values": [{"measurement": "NAALADase inhibiting activity (in words)", "setting": "NAALADase", "value": "much lower NAALADase inhibiting activity"}]}, {"smiles": "O=C(O)CCC(CP(=O)(O)C(NCc1ccccc1)c1ccccc1)C(=O)O", "note": "(stereo not drawn)", "values": [{"measurement": "Ki", "setting": "NAALADase", "value": 0.313, "unit": "µM"}]}, {"smiles": "O=C(O)CCC(CP(=O)(O)CN1C(=O)c2ccccc2C1=O)C(=O)O", "note": "(stereo not drawn)", "values": [{"measurement": "Ki", "setting": "NAALADase", "value": 0.0345, "unit": "µM"}]}, {"smiles": "CCCCP(=O)(O)CC(CCC(=O)O)C(=O)O", "note": "(stereo not drawn)", "values": [{"measurement": "Ki", "setting": "NAALADase", "value": 0.114, "unit": "µM"}]}, {"smiles": "O=C(O)CCC(CP(=O)(O)Cc1ccccc1)C(=O)O", "note": "(stereo not drawn)", "values": [{"measurement": "Ki", "setting": "NAALADase", "value": 0.0341, "unit": "µM"}]}, {"smiles": "O=C(O)CCC(CP(=O)(O)Cc1cccc(C(F)(F)F)c1)C(=O)O", "note": "(stereo not drawn)", "values": [{"measurement": "Ki", "setting": "NAALADase", "value": 0.0225, "unit": "µM"}]}, {"smiles": "O=C(O)CCC(CP(=O)(O)CCc1ccccc1)C(=O)O", "note": "(stereo not drawn)", "values": [{"measurement": "Ki", "setting": "NAALADase", "value": 0.148, "unit": "µM"}]}, {"smiles": "CC(=O)NCP(=O)(O)CC(CCC(=O)O)C(=O)O", "note": "(stereo not drawn)", "values": [{"measurement": "Ki", "setting": "NAALADase", "value": 0.118, "unit": "µM"}]}, {"smiles": "O=C(O)CCC(CP(=O)(O)CNCc1ccccc1)C(=O)O", "note": "(stereo not drawn)", "values": [{"measurement": "Ki", "setting": "NAALADase", "value": 0.0518, "unit": "µM"}]}, {"smiles": "O=C(O)CCC(CP(=O)(O)CCCc1ccccc1)C(=O)O", "note": "(stereo not drawn)", "values": [{"measurement": "Ki", "setting": "NAALADase", "value": 0.232, "unit": "µM"}]}, {"smiles": "Cc1ccc(NCP(=O)(O)CC(CCC(=O)O)C(=O)O)cc1", "note": "(stereo not drawn)", "values": [{"measurement": "Ki", "setting": "NAALADase", "value": 0.0052, "unit": "µM"}]}, {"smiles": "O=C(O)CCC(CP(=O)(O)CC(CCC(=O)O)C(=O)O)C(=O)O", "note": "(stereo not drawn)", "values": [{"measurement": "Ki", "setting": "NAALADase", "value": 0.00057, "unit": "µM"}]}, {"smiles": "CC(CP(=O)(O)CC(CCC(=O)O)C(=O)O)C(=O)O", "note": "(stereo not drawn)", "values": [{"measurement": "Ki", "setting": "NAALADase", "value": 0.0015, "unit": "µM"}]}, {"smiles": "O=C(O)CCC(CP(=O)(O)Cc1c(F)c(F)c(F)c(F)c1F)C(=O)O", "note": "(stereo not drawn)", "values": [{"measurement": "Ki", "setting": "NAALADase", "value": 0.0227, "unit": "µM"}]}, {"smiles": "O=C(O)CCC(CP(=O)(O)CCC(=O)O)C(=O)O", "note": "(stereo not drawn) [2-[[(2-carboxyethyl)hydroxyphosphinyl]-methyl]pentanedioic acid]", "values": [{"measurement": "Ki", "setting": "NAALADase", "value": "0.00189 ± 0.00019", "unit": "µM"}, {"measurement": "NAALADase inhibiting activity (in words)", "setting": "NAALADase", "value": "lower NAALADase inhibiting activity"}]}, {"smiles": "O=C(O)CCC(CP(=O)(O)c1ccccc1)C(=O)O", "note": "(stereo not drawn)", "values": [{"measurement": "Ki", "setting": "NAALADase", "value": 0.0358, "unit": "µM"}]}, {"smiles": "O=C(O)CCC(CP(=O)(O)CC(CCC(=O)OCc1ccccc1)C(=O)OCc1ccccc1)C(=O)O", "note": "(stereo not drawn)", "values": [{"measurement": "Ki", "setting": "NAALADase", "value": 0.0127, "unit": "µM"}]}, {"smiles": "O=C(O)CCC(CP(=O)(O)O)C(=O)O", "note": "(stereo not drawn) [2-(phosphonomethyl)pentanedioic acid]", "values": [{"measurement": "NAALADase inhibiting activity (in words)", "setting": "NAALADase", "value": "high NAALADase inhibiting activity"}, {"measurement": "Angiogenic response in Matrigel™/bFGF gels", "setting": "[1]; 1 μg/day continuous by minipump", "value": "strong angiogenic response"}, {"measurement": "Angiogenic response in Matrigel™/bFGF gels", "setting": "[1]; 10 μg/day continuous by minipump", "value": "significantly decreased angiogenesis"}, {"measurement": "Angiogenic response in Matrigel™/bFGF gels", "setting": "[1]; 100 μg/day continuous by minipump", "value": "significantly decreased angiogenesis"}, {"measurement": "Angiogenic response in Matrigel™ plugs (histology)", "setting": "[2]; 3 mg/kg daily subcutaneous injection, 0.47 μM in Matrigel", "value": "decreased neovasculature or angiogenesis"}, {"measurement": "Angiogenic response in Matrigel™ plugs (histology)", "setting": "[2]; 3 mg/kg daily subcutaneous injection, 0.47 μM in Matrigel, listed as PMPA", "value": "decrease in blood vessels or angiogenesis"}, {"measurement": "Angiogenic response in Matrigel™ plugs (histology)", "setting": "[2]; 30 mg/kg daily subcutaneous injection, 4.7 μM in Matrigel", "value": "decreased neovasculature or angiogenesis"}, {"measurement": "Angiogenic response in Matrigel™ plugs (histology)", "setting": "[2]; 30 mg/kg daily subcutaneous injection, 4.7 μM in Matrigel, listed as PMPA", "value": "decrease in blood vessels or angiogenesis"}, {"measurement": "Survival Rate After 5 days (%)", "setting": "mice; dose 1 mg/kg", "value": 100, "unit": "%"}, {"measurement": "Survival Rate After 5 days (%)", "setting": "mice; dose 5 mg/kg", "value": 100, "unit": "%"}, {"measurement": "Survival Rate After 5 days (%)", "setting": "mice; dose 10 mg/kg", "value": 100, "unit": "%"}, {"measurement": "Survival Rate After 5 days (%)", "setting": "mice; dose 30 mg/kg", "value": 100, "unit": "%"}, {"measurement": "Survival Rate After 5 days (%)", "setting": "mice; dose 100 mg/kg", "value": 100, "unit": "%"}, {"measurement": "Survival Rate After 5 days (%)", "setting": "mice; dose 300 mg/kg", "value": 100, "unit": "%"}, {"measurement": "Survival Rate After 5 days (%)", "setting": "mice; dose 500 mg/kg", "value": 66.7, "unit": "%"}, {"measurement": "Toxicity to mice (in words)", "setting": "mice; doses 1 to 500 mg/kg", "value": "non-toxic to mice"}]}, {"smiles": "COc1ccc(NCP(=O)(O)CC(CCC(=O)O)C(=O)O)cc1", "note": "(stereo not drawn)", "values": [{"measurement": "Ki", "setting": "NAALADase", "value": 0.0025, "unit": "µM"}]}, {"smiles": "O=C(O)CCC(CP(=O)(O)CNC(=O)Nc1ccccc1)C(=O)O", "note": "(stereo not drawn)", "values": [{"measurement": "Ki", "setting": "NAALADase", "value": 0.075, "unit": "µM"}]}]}
